The values that follow come from patent US8258134B2, “Pyridazinone glucokinase activators” (Hoffmann-La Roche Inc., priority 2008, dated 2012).

The target of this experiment is T1, Recombinant human liver GK1 (GST-GK) (Homo sapiens, UniProt P35557).
T1 construct: made in house; host or cells: E. coli
T1 sequence (P35557 1-466 isoform P35557-2): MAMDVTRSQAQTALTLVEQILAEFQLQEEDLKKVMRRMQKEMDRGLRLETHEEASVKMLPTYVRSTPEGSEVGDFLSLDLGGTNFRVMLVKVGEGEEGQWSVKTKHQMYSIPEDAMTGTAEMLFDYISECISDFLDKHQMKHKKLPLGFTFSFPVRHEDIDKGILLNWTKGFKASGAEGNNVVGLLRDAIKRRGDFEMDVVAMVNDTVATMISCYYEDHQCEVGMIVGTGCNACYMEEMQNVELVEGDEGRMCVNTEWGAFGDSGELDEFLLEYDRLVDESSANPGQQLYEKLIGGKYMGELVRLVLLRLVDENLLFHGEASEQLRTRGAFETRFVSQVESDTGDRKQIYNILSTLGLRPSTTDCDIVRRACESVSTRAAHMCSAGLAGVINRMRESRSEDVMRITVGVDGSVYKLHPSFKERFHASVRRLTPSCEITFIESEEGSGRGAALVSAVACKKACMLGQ
The experiment is described as follows: Glucokinase in vitro assay (G6PDH-coupled NADH generation, OD340). The class given is biochemical. Particulars: 5 mM D-glucose, 30° C., pH 7.1, 10% DMSO. The gist of the method:
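GST-tagged recombinant GK1 expressed in E. coli, run at 30° C, pH 7.1 Hepes with 5 mM D-glucose, 1 mM ATP and 1.8 mM NAD, G6PDH-coupled. Compounds were in 10% DMSO final, with a 10 min pre-incubation before enzyme addition. OD340/min rate measured; SC1.5 is the activator concentration giving a 50% increase in activity.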
`COc1cccc(Oc2cnn(C(CC(C)C)C(=O)Nc3ccn(C[C@@H](O)CO)n3)c(=O)c2)c1Cl` (stereo partly drawn) [Example 127, 2-[4-(2-Chloro-3-methoxy-phenoxy)-6-oxo-6H-pyridazin-1-yl]-4-methyl-pentanoic acid [1-((R)-2,3-dihydroxy-propyl)-1H-pyrazol-3-yl]-amide]: the “SC1.5 average (concentration of activator that produced a 50% increase in the activity of GK)” value turned out to be 0.334 µM. For `O=C(Nc1ccn(C[C@@H](O)CO)n1)C(CC1CCCC1)n1ncc(Oc2ccccc2CCO)cc1=O` (stereo partly drawn) [Example 101, 3-Cyclopentyl-N-[1-((R)-2,3-dihydroxy-propyl)-1H-pyrazol-3-yl]-2-{4-[2-(2-hydroxy-ethyl)-phenoxy]-6-oxo-6H-pyridazin-1-yl}-propionamide] the value was 0.732 µM. Then `COC(=O)c1ccc(NC(=O)[C@@H](CC2CCCC2)n2ncc(Oc3c(F)cccc3F)cc2=O)nc1` [Example 68B, 6-{(R)-3-Cyclopentyl-2-[4-(2,6-difluoro-phenoxy)-6-oxo-6H-pyridazin-1-yl]-propionylamino}-nicotinic acid methyl ester], with 0.597 µM; and `CC(C)(O)Cn1ccc(NC(=O)C(CC2CCOCC2)n2ncc(Oc3c(F)cccc3F)cc2=O)n1` (centres unmarked) [Example 43, 2-[4-(2,6-Difluoro-phenoxy)-6-oxo-6H-pyridazin-1-yl]-N-[1-(2-hydroxy-2-methyl-propyl)-1H-pyrazol-3-yl]-3-(tetrahydro-pyran-4-yl)-propionamide], with 0.232 µM. In the case of `CC(C)(O)Cn1ccc(NC(=O)C(CC2CCOCC2)n2ncc(Oc3ccccc3Cl)c(Cl)c2=O)n1` (centres unmarked) [Example 129, 2-[5-Chloro-4-(2-chloro-phenoxy)-6-oxo-6H-pyridazin-1-yl]-N-[1-(2-hydroxy-2-methyl-propyl)-1H-pyrazol-3-yl]-3-(tetrahydro-pyran-4-yl)-propionamide], the “SC1.5 average (concentration of activator that produced a 50% increase in the activity of GK)” value came to 1.006 µM.

With `CC(C)(O)Cn1ccc(NC(=O)[C@@H](CC2CCCC2)n2ncc(Oc3ccccc3F)cc2=O)n1` [Example 19B, (R)-3-Cyclopentyl-2-[4-(2-fluoro-phenoxy)-6-oxo-6H-pyridazin-1-yl]-N-[1-(2-hydroxy-2-methyl-propyl)-1H-pyrazol-3-yl]-propionamide], the “SC1.5 average (concentration of activator that produced a 50% increase in the activity of GK)” value is 3.411 µM.

In the case of `CC(C)(O)Cn1ccc(NC(=O)C(CC2CCCC2)n2ncc(Cc3ccccc3C(F)(F)F)cc2=O)n1` (centres unmarked) [Example 46, 3-Cyclopentyl-N-[1-(2-hydroxy-2-methyl-propyl)-1H-pyrazol-3-yl]-2-[6-oxo-4-(2-trifluoromethyl-benzyl)-6H-pyridazin-1-yl]-propionamide], the “SC1.5 average (concentration of activator that produced a 50% increase in the activity of GK)” value stood at 1.947 µM. For the compound `CC(C)(O)Cn1ccc(NC(=O)[C@@H](CC2CCCC2)n2ncc(Oc3cccc4cnccc34)cc2=O)n1` [Example 37B, (R)-3-Cyclopentyl-N-[1-(2-hydroxy-2-methyl-propyl)-1H-pyrazol-3-yl]-2-[4-(isoquinolin-5-yloxy)-6-oxo-6H-pyridazin-1-yl]-propionamide], the “SC1.5 average (concentration of activator that produced a 50% increase in the activity of GK)” value worked out at 18.488 µM. For `CC(C)C[C@@H](C(=O)Nc1ccn(CC(C)(C)O)n1)n1ncc(Oc2c(F)cccc2F)cc1=O` [Example 42A, (S)-2-[4-(2,6-Difluoro-phenoxy)-6-oxo-6H-pyridazin-1-yl]-4-methyl-pentanoic acid [1-(2-hydroxy-2-methyl-propyl)-1H-pyrazol-3-yl]-amide] the value was 0.17 µM; for `COc1ccc(Oc2cnn(C(CC3CCCCC3)C(=O)Nc3ccn(CC(C)(C)O)n3)c(=O)c2)c(Cl)c1` (centres unmarked) [Example 118, 2-[4-(2-Chloro-4-methoxy-phenoxy)-6-oxo-6H-pyridazin-1-yl]-3-cyclohexyl-N-[1-(2-hydroxy-2-methyl-propyl)-1H-pyrazol-3-yl]-propionamide], 0.237 µM; for `CC(C)(O)Cn1ccc(NC(=O)C(CC2CCCC2)n2ncc(Oc3ccccc3S(C)(=O)=O)cc2=O)n1` (centres unmarked) [Example 30, 3-Cyclopentyl-N-[1-(2-hydroxy-2-methyl-propyl)-1H-pyrazol-3-yl]-2-[4-(2-methanesulfonyl-phenoxy)-6-oxo-6H-pyridazin-1-yl]-propionamide], 2.975 µM. For the compound `CC(C)(O)Cn1ccc(NC(=O)C(CC2CCCC2)n2ncc(Oc3cccnc3)cc2=O)n1` (centres unmarked) [Example 28, 3-Cyclopentyl-N-[1-(2-hydroxy-2-methyl-propyl)-1H-pyrazol-3-yl]-2-[6-oxo-4-(pyridin-3-yloxy)-6H-pyridazin-1-yl]-propionamide], the “SC1.5 average (concentration of activator that produced a 50% increase in the activity of GK)” value came out at 1.925 µM. Then `Cc1ccc(Oc2cnn(C(CC3CCCCC3)C(=O)Nc3ccn(CC(C)(C)O)n3)c(=O)c2)c(C)c1` (centres unmarked) [Example 117, 3-Cyclohexyl-2-[4-(2,4-dimethyl-phenoxy)-6-oxo-6H-pyridazin-1-yl]-N-[1-(2-hydroxy-2-methyl-propyl)-1H-pyrazol-3-yl]-propionamide], with 0.352 µM. For the compound `Cc1ccccc1Oc1cnn([C@@H](CC2CCCC2)C(=O)Nc2ccc(C(=O)O)cn2)c(=O)c1` [Example 74A, 6-[(S)-3-Cyclopentyl-2-(6-oxo-4-o-tolyloxy-6H-pyridazin-1-yl)-propionylamino]-nicotinic acid], the “SC1.5 average (concentration of activator that produced a 50% increase in the activity of GK)” value is 0.043 µM.

As for `O=C(Nc1ccn(CCO)n1)C(CC1CCOCC1)n1ncc(Oc2c(F)cccc2F)cc1=O` (centres unmarked) [Example 53, 2-[4-(2,6-Difluoro-phenoxy)-6-oxo-6H-pyridazin-1-yl]-N-[1-(2-hydroxy-ethyl)-1H-pyrazol-3-yl]-3-(tetrahydro-pyran-4-yl)-propionamide], the “SC1.5 average (concentration of activator that produced a 50% increase in the activity of GK)” value was found to be 0.469 µM. For `O=C(O)c1ccc(NC(=O)C(CC2CCCC2)n2ncc(Oc3c(F)cccc3F)cc2=O)nc1` (centres unmarked) [Example 73, 6-{3-Cyclopentyl-2-[4-(2,6-difluoro-phenoxy)-6-oxo-6H-pyridazin-1-yl]-propionylamino}-nicotinic acid] the value was 0.026 µM; for `CC(C)(O)Cn1ccc(NC(=O)[C@H](CC2CCCC2)n2ncc(Oc3cccc4cnccc34)cc2=O)n1` [Example 37A, (S)-3-Cyclopentyl-N-[1-(2-hydroxy-2-methyl-propyl)-1H-pyrazol-3-yl]-2-[4-(isoquinolin-5-yloxy)-6-oxo-6H-pyridazin-1-yl]-propionamide], 0.238 µM; for `CCC(CC)CC(C(=O)Nc1ccn(C[C@@H](O)CO)n1)n1ncc(Oc2c(F)cccc2F)cc1=O` (stereo partly drawn) [Example 64, 2-[4-(2,6-Difluoro-phenoxy)-6-oxo-6H-pyridazin-1-yl]-4-ethyl-hexanoic acid [1-((R)-2,3-dihydroxy-propyl)-1H-pyrazol-3-yl]-amide], 0.551 µM. For `CC(C)(O)Cn1ccc(NC(=O)[C@H](CC2CCCC2)n2ncc(Oc3ccccc3N3CCCC3)cc2=O)n1` [Example 26A, (S)-3-Cyclopentyl-N-[1-(2-hydroxy-2-methyl-propyl)-1H-pyrazol-3-yl]-2-[6-oxo-4-(2-pyrrolidin-1-yl-phenoxy)-6H-pyridazin-1-yl]-propionamide] the value was 0.102 µM; for `O=C(O)c1ccc(NC(=O)[C@H](CC2CCCC2)n2ncc(Oc3cccc4c3CCCC4)cc2=O)nc1` [Example 72A, 6-{(S)-3-Cyclopentyl-2-[6-oxo-4-(5,6,7,8-tetrahydro-naphthalen-1-yloxy)-6H-pyridazin-1-yl]-propionylamino}-nicotinic acid], 0.044 µM. For `CC(C)(O)Cn1ccc(NC(=O)C(CC2CCCC2)n2ncc(Oc3cccc(C(F)(F)F)c3)cc2=O)n1` (centres unmarked) [Example 6, 3-Cyclopentyl-N-[1-(2-hydroxy-2-methyl-propyl)-1H-pyrazol-3-yl]-2-[6-oxo-4-(3-trifluoromethyl-phenoxy)-6H-pyridazin-1-yl]-propionamide] the value was 0.844 µM. For `CC(C)(O)Cn1ccc(NC(=O)C(CC2CCCC2)n2ncc(Oc3ccccc3C(=O)N3CCCC3)cc2=O)n1` (centres unmarked) [Example 41, 3-Cyclopentyl-N-[1-(2-hydroxy-2-methyl-propyl)-1H-pyrazol-3-yl]-2-{6-oxo-4-[2-(pyrrolidine-1-carbonyl)-phenoxy]-6H-pyridazin-1-yl}-propionamide], the “SC1.5 average (concentration of activator that produced a 50% increase in the activity of GK)” value is 8.414 µM. Then `CC(C)(O)Cn1ccc(NC(=O)C(CC2CCCC2)n2ncc(Oc3cccc(Oc4ccccc4)c3)cc2=O)n1` (centres unmarked) [Example 35, 3-Cyclopentyl-N-[1-(2-hydroxy-2-methyl-propyl)-1H-pyrazol-3-yl]-2-[6-oxo-4-(3-phenoxy-phenoxy)-6H-pyridazin-1-yl]-propionamide], with 2.173 µM.
